Marks after values point to notes of the source that are not given here. Each block holds one compound with its values, some of them ahead of it.
Tests used:
[1] = test system: HT-29 cells; test: Intracellular trapping of the radioconjugates in living HT-29 cells (GPC, SDS-PAGE); format: cell-based, human; conditions: live HT-29 cells, GPC and SDS-PAGE
Description: Intracellular Trapping of the Radioconjugates in Living HT-29 Cells
To the HT-29 cells (1×10^6/well) seeded in 6-well plates was added the radioconjugates (0.74 MBq, 20 μCi) in 1 mL of cell culture medium. The cells were incubated at 37° C. for 4 hours and the medium was removed by vacuum followed washing with PBS (2×2 mL). The cells (˜3×10^6) were trypsinized and combined in microcentrifuge. The RIPA buffer (100 μL) containing Halttmprotease inhibitor (100×, 1 μL) was added to the cell pellet and vigorously vortexed for 1 minute. The suspension was incubated on ice for 15 minutes and centrifuged to remove the pellet. The supernatant (80 μL) was equally divided into two portions. The first portion (40 μL) was directly analyzed by radioactive-GPC with a flow rate of 0.6 mL/minute (40% ACN in PBS containing 0.1% sodium azide). The second portion (40 μL) of the cell lysate was mixed with Novex Tris-Glycine SDS sample buffer (2×) (40 μL) and incubated for another 15 minutes. The mixture (30 μL) was loaded onto a Novex 16% tris-glycine gel and analyzed by SDS-PAGE at 110 V for 90 minutes. The autoradiograph of the SDS-PAGE was performed as described above.

[2] = test system: HT-29 xenograft tumors; test: Biodistribution study in HT-29 xenograft mouse model; format: in vivo, mice; conditions: HT-29 xenograft, by 24 hours
Description: Female SCID mice (5 weeks of age) received subcutaneous injections of HT-29 cells (5×10^6) suspended in Matrigel® into the flanks. When the tumor size reached 80 mm^3 (two weeks after injection), the mice were randomized into three groups and intravenously injected with 10 μCi (0.37 MBq) of the purified ^177Lu labeled conjugates via tail vein. The mice were sacrificed and the tissues were excised at 4, 24, and 72 hours post-injection time points. The blood, tumor, and excised tissues were weighed. The radioactivity for each sample was measured using a gamma counter. The percentage injected dose per gram (% ID/g) and the radioactivity ratios between tumor and non-targeted tissues were calculated.

[3] = test system: HT-29 cells; test: HT-29 cell efflux study; format: cell-based, human; conditions: at 24 hours
Description: The HT-29 Cell Efflux Studies
The ^177Lu radioconjugate was added to a sterilized 1.5 mL microcentrifuge tube containing HT-29 cells ˜1×10^6) suspended in 300 μL of cell culture medium, yielding a final radioactivity concentration of 100,000 cpm/100 μL, and was incubated for 2 hours at 37° C. After the removal of the culture medium, the cells were washed with fresh medium (5×500 μL) followed by the addition of 500 μL of fresh medium for the efflux assay. At 0, 1, 2, 4, 8, and 24 hour time interval, fresh medium (500 μL) was added to the tube to replace the old medium which was harvested for quantitative analysis of the effluxed radioactivity using a gamma counter. The cells were lysed with a 10% aqueous SDS solution at 24 hour to quantify the remaining internalized radioactivity. The effluxed fraction is expressed as a percentage of the total radioactivity added to the tube, which is the sum of the effluxed and internalized fractions obtained from the study.

[4] = molecular target: T1, cathepsin B (human Liver) (Homo sapiens, UniProt P07858); test: Inhibition constant (Ki) of the compounds to cathepsin B; format: biochemical
T1 construct: from tissue; host or cells: human liver
Description: Determination of the Km and Vmax of Cathepsin B for Z-Arg-Arg-AMC
The solution of cathepsin B (human Liver) (50 μL, 2 nM) in assay buffer used above was mixed with 50 μL of solution of substrate Z-Arg-Arg-AMC in the assay buffer at different concentrations ([S]) (25 μM, 50 μM, 100 μM, 500 μM and 1 mM). The mixture was incubated at 37° C. and the fluorescence of the liberated aminomethylcoumarin at 460 nM using 355 nm excitation was measured at predetermined time points (0, 2, 4, 6, 8, and 10 minutes). The fluorescence intensity was plotted versus time and the reaction rates (v0) were calculated as the slope of the trend lines obtained by liner regression. Km and maximum reaction rate (Vmax-obs) was determined from the equation v0=Vmax[S]/(Km+[S]) and solved by nonlinear regression using GraphPad Prism 5. All measurements were in biological triplicate.
Determination of the Inhibition Constant (Ki) of the Compounds to Cathepsin B
The cathepsin B (human Liver) in assay buffer (25 μL) was mixed with the conjugate (25 μL) in 96-well plate. After the solution was mixed, the Z-Arg-Arg-AMC in assay buffer (50 μL) was added to the well, yielding a final cathepsin B concentration of 1 nM, conjugate concentration ([C]) of 15 nM or 5 μM, and substrate concentration ([S]) of 25 μM, 50 μM, 100 μM, 500 μM and 1 mM. The mixture was incubated at 37° C. and the fluorescence of the liberated aminomethylcoumarin at 460 nM using 355 nm excitation was measured at predetermined time points (0, 2, 4, 6, 8, and 10 minutes). The fluorescence intensity was plotted versus time with observed reaction rates (v0-obs) calculated as the slope of the trend lines obtained by liner regression. The observed rate constant (Kobs) and observed maximum reaction rate (Vmax-obs) was determined from the equation v0-obs=Vmax-obs [S]/(Kobs+[S]) and solved by nonlinear regression using GraphPad Prism 5. The Ki was calculated from the equation Kobs=Km (1+[C]/Ki). All measurements were in biological triplicate.

[5] = Distribution coefficient (Log D7.4) of the conjugates; format: physicochemical; conditions: determined by radiometric analysis; 177Lu-labeled conjugate
[6] = test system: HT-29 xenograft tumors; test: Tissue adduct formation of the radioconjugates (SDS-PAGE, centrifugal filtration); format: in vivo, mice; conditions: autoradiographic SDS-PAGE, 24 hours post-injection
Description: The radioconjugates (800 μCi/mouse) were intravenously injected to the tumor bearing mice. The mice were sacrificed and the tumor, liver, and kidney were excised at 24 and 72 hours post-injection time points. The tumor and organs were homogenized in RIPA buffer (50 mg/100 μL) containing Halt™ protease inhibitor (100×, 1 μL) on ice and centrifuged to remove the pellet. An aliquot (20 μL) of the supernatant of the sample at 24 hours was mixed with Novex Tris-Glycine SDS sample buffer (2×, 20 μL) and incubated for further 10 minutes. The mixtures (20 μL) were loaded onto a Novex 16% tris-glycine gel and analyzed by SDS-PAGE at 110 V for 90 minutes. The autoradiograph of the SDS-PAGE was performed according to the same method in section 3.8.1. On the other hand, the aliquots (100 μL) of supernatants of all the tumor samples at 24 hours and 72 hours were individually centrifuged with Pierce™ protein concentrators (MWCO=10 kDa) to separate the low molecular weight radioactivity. The radioactivity in each fraction was quantified using a gamma counter to calculate the percentage of the cysteine proteases trapped radioconjugate in the total counts.

[7] = test system: HT-29 xenograft tumors; design: species or system mice; conditions: mouse
Description: Evaluation of Cysteine Proteases Trapping of the Cy 5-Labeled Conjugates
The Cy 5-labeled conjugates (40 nmol) were intravenously injected to the tumor bearing mice. The mice were sacrificed at 24 post-injection time points, and the heart, lung, liver, spleen, pancreas, kidney, intestine, brain, and tumor were excised and imaged using an IVIS spectrum system. The tumor and organs were homogenized in RIPA buffer (50 mg/100 μL) containing Halt™ protease inhibitor (100×, 1 μL) on ice and centrifuged to remove the pellet. An aliquot (18 μL) of the supernatant of the sample was added in NuPAGE® sample reducing reagent (10×, 2 μL) and denatured at 80° C. for 2 minutes. The sample was mixed with Novex Tris-Glycine S DS sample buffer (2×, 20 μL) and incubated for further 10 minutes. The mixtures (20 μL) were loaded onto a Novex 16% tris-glycine gel and analyzed by SDS-PAGE at 110 V for 90 minutes, followed by electro transferring onto PVDF membranes. The PVDF membranes were blocked by animal-free blocking buffer for 1 hour at room temperature and then were incubated with Cathepsin B (D1C7Y) XP® Rabbit mAb at 4° C. for overnight. Membranes was then incubated with Goat anti-Rabbit IgG (H+L) secondary antibody at room temperature for 1 hour and visualized using Typhoon FLA 9500.

[8] = molecular target: CatL (Homo sapiens, UniProt P07711); test: CatL inhibition constant; format: biochemical
[9] = molecular target: GRPR (Homo sapiens, UniProt P30550); test: GRPR affinity of GRPR-targeted agents; format: binding
[10] = test system: PC-3 tumor; conditions: mouse, in vivo
[11] = molecular target: CatB (Homo sapiens, UniProt P07858); test: CatB inhibition of GRPR-targeted agents; format: biochemical
Description: The Inhibition of Cathepsin B Activity by the Conjugates The phosphate buffer (0.1 M, pH=5.8) containing EDTA (1 mM), DTT (2.7 mM), and Brij®35 (0.03%) was prepared before the assay. […] The solution of cathepsin B (human Liver) in assay buffer (50 μL, 0.544 nM) was added to the mixture which was further incubated at 37° C. for 20 minutes. The fluorescence of the liberated aminomethylcoumarin at 460 nM using 355 nm excitation was measured and the IC50 of the cathepsin B inhibition versus the samples without the inhibitor was determined by nonlinear regression using GraphPad Prism 5.

GRPR, sequence (P30550 whole entry): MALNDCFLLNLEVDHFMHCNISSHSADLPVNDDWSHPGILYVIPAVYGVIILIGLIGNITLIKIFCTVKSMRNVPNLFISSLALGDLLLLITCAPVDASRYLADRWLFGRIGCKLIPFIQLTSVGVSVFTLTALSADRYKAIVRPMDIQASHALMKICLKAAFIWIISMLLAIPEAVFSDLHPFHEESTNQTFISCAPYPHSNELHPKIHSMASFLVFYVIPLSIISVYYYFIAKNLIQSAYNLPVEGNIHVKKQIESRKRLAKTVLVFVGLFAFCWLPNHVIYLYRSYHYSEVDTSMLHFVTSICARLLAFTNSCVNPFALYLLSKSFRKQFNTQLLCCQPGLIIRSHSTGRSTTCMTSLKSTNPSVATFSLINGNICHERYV
CatL, sequence (P07711 114-333): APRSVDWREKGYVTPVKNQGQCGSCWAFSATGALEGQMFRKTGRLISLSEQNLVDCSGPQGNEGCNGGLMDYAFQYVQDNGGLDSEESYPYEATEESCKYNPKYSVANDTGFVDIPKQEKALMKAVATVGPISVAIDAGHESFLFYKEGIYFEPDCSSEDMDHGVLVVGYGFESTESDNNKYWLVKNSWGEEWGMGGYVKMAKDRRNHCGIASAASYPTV

Compound: Cc1cc(O)cc(C)c1C[C@H](NC(=O)[C@@H]1CCCN1C(=O)[C@H](CCCNC(=N)N)NC(=O)[C@H](CCCNC(=N)N)N(C)C(=O)[C@@H]1CCCN1C(=O)[C@H](CCCCN)NC(=O)[C@@H](CO)NC(=O)[C@@H](CO)NC(=O)[C@@H](CO)NC(=O)[C@H](Cc1cn(CC(=O)N[C@H](CO)C(=O)N[C@H](CO)C(=O)N[C@H](CO)C(=O)NCC(=O)NCCCC[C@H](NC(=O)[C@H](Cc2ccccc2)NC(=O)OCc2ccccc2)C(=O)NCCc2ccccc2)nn1)NC(=O)CN1CCN(CC(=O)O)CCN(CC(=O)O)CCN(CC(=O)O)CC1)C(=O)N[C@H](C(=O)N[C@@H](CC(C)C)C(=O)O)C(C)(C)C [Compound 3b]
intracellular adduct formation (in words) [1]: no adduct formation
decrease in tumor retention [2]: 40%
efflux [3]: 69%
CatB K1 [4]: ni
Ki and inhibition IC50 to CatB (in words) [4]: did not demonstrate any inhibition
logD7.4 [5]: −2.01 ± 0.06^b
in vivo adduct formation (in words) [6]: no signs of adduct formation

Compound: Cc1cc(C)c(C(=O)OCC(=O)[C@H](CCCCNC(=O)CNC(=O)[C@@H](CO)NC(=O)[C@@H](CO)NC(=O)[C@@H](CO)NC(=O)Cn2cc(C[C@H](NC(=O)CCCCC[N+]3=C(/C=C/C=C/C=C4/N(C)c5ccccc5C4(C)C)C(C)(C)c4ccccc43)C(=O)N[C@H](CO)C(=O)N[C@H](CO)C(=O)N[C@H](CO)C(=O)N[C@@H](CCCCN)C(=O)N3CCC[C@H]3C(=O)N(C)[C@@H](CCCNC(=N)N)C(=O)N[C@@H](CCCNC(=N)N)C(=O)N3CCC[C@H]3C(=O)N[C@@H](Cc3c(C)cc(O)cc3C)C(=O)N[C@H](C(=O)N[C@@H](CC(C)C)C(=O)O)C(C)(C)C)nn2)NC(=O)[C@H](Cc2ccccc2)NC(=O)OCc2ccccc2)c(C)c1 [Compound 4a]
tumor retention by ex vivo imaging (in words) [7]: greater than its counterpart 4b

CatB Ki ([4]; Table 3): ni^b
CatL Ki [8]: ni^b
Compound: Cc1cc(O)cc(C)c1C[C@H](NC(=O)[C@@H]1CCCN1C(=O)[C@H](CCCNC(=N)N)NC(=O)[C@H](CCCNC(=N)N)N(C)C(=O)[C@@H]1CCCN1C(=O)[C@H](CCCCN)NC(=O)[C@@H](CO)NC(=O)[C@@H](CO)NC(=O)[C@@H](CO)NC(=O)[C@H](Cc1cn(CCNC(=O)[C@H](CCCNC(=N)N)NC(=O)[C@H](CC(C)C)NC(=O)CCC(=O)O)nn1)NC(=O)CN1CCN(CC(=O)O)CCN(CC(=O)O)CCN(CC(=O)O)CC1)C(=O)N[C@H](C(=O)N[C@@H](CC(C)C)C(=O)O)C(C)(C)C [Ec]

IC50 [9]: 16.5 ± 3.3 nM
IC50 [11]: > 200000 nM
Compound: CSCC[C@H](NC(=O)[C@H](CC(C)C)NC(=O)[C@H](Cc1c[nH]cn1)NC(=O)CNC(=O)[C@@H](NC(=O)[C@H](C)NC(=O)[C@H](Cc1c[nH]c2ccccc12)NC(=O)[C@H](CCC(N)=O)NC(=O)CCOCCOCCOCCOCCNC(=O)[C@H](Cc1cn(CCNC(=O)[C@H](CCCNC(=N)N)NC(=O)[C@H](CC(C)C)NC(=O)CCC(=O)O)nn1)NC(=O)CN1CCN(CC(=O)O)CCN(CC(=O)O)CCN(CC(=O)O)CC1)C(C)C)C(N)=O [^177Lu-C-AG, metal not drawn]
tumor retention [10]: 32%

From patent US12485191B2, “Radiopharmaceuticals and methods of use thereof” (BOARD OF REGENTS OF THE UNIVERSITY OF NEBRASKA, priority 2017, dated 2025)
